The text below walks through data of ChEMBL document CHEMBL4811314, “Synthesis, biochemical, and biological evaluation of C2 linkage derivatives of amino sugars, inhibitors of glucokinase from Trypanosoma cruzi” (Bioorg Med Chem Lett, 2021).

One data set deals with T1, Hexokinase-4 (Homo sapiens, UniProt P35557).
T1 sequence (P35557 whole entry): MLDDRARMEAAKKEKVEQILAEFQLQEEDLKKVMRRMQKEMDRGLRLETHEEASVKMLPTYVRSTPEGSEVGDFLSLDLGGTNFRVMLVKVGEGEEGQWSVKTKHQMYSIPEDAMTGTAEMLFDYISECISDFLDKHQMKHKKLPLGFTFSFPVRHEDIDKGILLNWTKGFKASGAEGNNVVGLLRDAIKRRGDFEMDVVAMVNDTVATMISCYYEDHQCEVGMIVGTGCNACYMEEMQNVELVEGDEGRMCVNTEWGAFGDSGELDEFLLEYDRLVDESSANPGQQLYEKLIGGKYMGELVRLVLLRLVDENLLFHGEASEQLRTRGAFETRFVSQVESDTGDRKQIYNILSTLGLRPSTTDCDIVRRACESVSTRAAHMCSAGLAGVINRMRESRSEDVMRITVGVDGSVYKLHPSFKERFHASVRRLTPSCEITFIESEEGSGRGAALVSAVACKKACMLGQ
Description: Inhibition of human hexokinase-4 at 20 uM relative to control.

Data set [1] deals with Trypanosoma cruzi. Description: Antitrypanosomal activity against intracellular Trypanosoma cruzi Tulahuen […] infected in mouse NIH/3T3 cells assessed as parasite growth inhibition. It is filed as functional, organism-based. The conditions noted are these: NIH3T3.
The subject of another data set is Saccharomyces cerevisiae. Description: Inhibition of Saccharomyces cerevisiae G6PDH at 20 uM relative to control.
Data set [2] can be described thus: Inhibition of Trypanosoma cruzi glucokinase.
Data set [3] relates to Trypanosoma cruzi. Description: Antitrypanosomal activity against Trypanosoma cruzi Tulahuen amastigotes infected in mouse NIH/3T3 cells assessed as parasite growth inhibition incubated for 4 days in glucose rich DMEM medium. It is filed as functional, organism-based. The settings on record: NIH3T3, 96 h.
Data set [4] relates to Trypanosoma cruzi. Description: Competitive inhibition of Trypanosoma cruzi glucokinase assessed as Km using varying levels of D-glucose as substrate in presence of ATP by Lineweaver-Burk plot analysis.
Data set [5] concerns Trypanosoma cruzi. Put plainly: Competitive inhibition of Trypanosoma cruzi glucokinase assessed as Vmax using varying levels of D-glucose as substrate in presence of ATP by Lineweaver-Burk plot analysis.
A short description of data set [6]: Competitive inhibition of Trypanosoma cruzi glucokinase using D-glucose as substrate in presence of ATP by Lineweaver-Burk plot analysis.
Data set [7] in a line: Inhibition of His6-tagged Trypanosoma cruzi glucokinase using D-glucose and ATP as substrates.

Molecules are shown by their SMILES. pIC50, pKi: −log10 of the molar value.

Broadly, the inhibition is how much of the control response was suppressed. Lower therefore signals a response near the control. One may read the pIC50 as the negative decadic logarithm of the IC50, by convention in mol/L. By pKi is commonly meant the Ki on a negative log10 scale, so that one unit is a factor of ten. Consider `O=C(N[C@H]1C(O)O[C@H](CO)[C@@H](O)[C@@H]1O)c1ccc(CCl)cc1` (stereo partly specified), for which, on Hexokinase-4, 20 µM produced 35.8% inhibition. The pIC50 in the data set on Trypanosoma cruzi [1] was 4.28. In the data set on Saccharomyces cerevisiae, this molecule showed an inhibition of 0%. For the same molecule, the negative logarithm of the Ki (pKi) in data set [2] was less than 3.30.
The corresponding values for `Cc1ccc(C(=O)N[C@@H]2C(O)O[C@H](CO)[C@@H](O)[C@@H]2O)o1` (stereo partly specified) are 48.8%, less than 4.10, 0% and 3.32.
On to `O=C(Cn1ccnc1[N+](=O)[O-])NCc1ccccc1` [BENZNIDAZOLE], for which the pIC50 in the data set with Trypanosoma cruzi [3] was 5.95.
Turning to `O=C(N[C@@H]1C(O)O[C@H](CO)[C@@H](O)[C@@H]1O)c1cc2ccccc2o1` (stereo partly specified), testing at 20 µM at Hexokinase-4 gave an inhibition of 12.4%. In addition, in the data set on Trypanosoma cruzi [1], the pIC50 is 4.37. Besides, the inhibition with Saccharomyces cerevisiae stood at 0%. Also, the negative logarithm of the Ki (pKi) in data set [2] was less than 3.30.
The corresponding values for `O=C(N[C@@H]1C(O)O[C@H](CO)[C@@H](O)[C@@H]1O)c1ccoc1` (stereo partly specified) are 31.6%, 4.17, 0% and less than 3.30.
The matching figures for `O=C(N[C@H]1C(O)O[C@H](CO)[C@H](O)[C@@H]1O)c1ccoc1` (stereo partly specified): 47.2%, 4.44, 0% and less than 3.30.
As a reminder, the Km is the concentration of substrate that gives half-maximal velocity. The term Vmax denotes the top rate of the reaction or transport when substrate is in excess. At Hexokinase-4, `O=C(N[C@H]1C(O)O[C@H](CO)[C@@H](O)[C@@H]1O)c1ccoc1` (stereo partly specified) showed an inhibition at 20 µM of 41.2%. Further, the pIC50 with Trypanosoma cruzi [1] is 4.30. This molecule also came in with an inhibition in the data set with Saccharomyces cerevisiae of 0%. Further, the Km with Trypanosoma cruzi [4] is 840 µM. In addition, the negative logarithm of the Ki (pKi) in data set [2] and in [6] was 4.82 each time. Moreover, in the data set with Trypanosoma cruzi [5], the maximum rate (Vmax) is 6.3 10^-5M/min.
`O=C(N[C@@H]1C(O)O[C@H](CO)[C@@H](O)[C@@H]1O)c1ccc(CCl)cc1` (stereo partly specified) showed an inhibition at 20 µM at Hexokinase-4 of 28.1%. The negative logarithm of the IC50 (pIC50) in the data set with Trypanosoma cruzi [1] is 4.42. Further, the inhibition with Saccharomyces cerevisiae amounted to 0%. For the same molecule, the pKi in data set [2] was less than 3.30.
The matching figures for `O=C(N[C@H]1C(O)O[C@H](CO)[C@H](O)[C@@H]1O)c1cc2ccccc2o1` (stereo partly specified): 36.5%, 4.18, 0% and less than 3.30.
The corresponding values for `O=C(N[C@H]1C(O)O[C@H](CO)[C@H](O)[C@@H]1O)c1ccc(CCl)cc1` (stereo partly specified) are 8.3%, 4.42, 0% and less than 3.30.
The molecule `O=C(N[C@@H]1C(O)O[C@H](CO)[C@@H](O)[C@@H]1O)c1ccccc1` (stereo partly specified) had an inhibition at 20 µM against Hexokinase-4 of 55.5%. In addition, the pIC50 in the data set on Trypanosoma cruzi [1] was 4.36. In the data set on Saccharomyces cerevisiae, this molecule showed an inhibition of 0%. Besides, the pKi in data set [2] is less than 3.30.
On Hexokinase-4, `O=C(N[C@H]1C(O)O[C@H](CO)[C@H](O)[C@@H]1O)c1cccc(Br)c1` (stereo partly specified) came in with an inhibition at 20 µM of 29.8%. In addition, the negative logarithm of the IC50 (pIC50) in the data set on Trypanosoma cruzi [1] is 4.70. Further, the inhibition in the data set with Saccharomyces cerevisiae was determined as 0%. This molecule showed a negative-log Ki (pKi) in data set [2] of less than 3.30.
Take `C[C@@H]1[C@H](O)[C@@H](C)/C=C/C=C/C=C/C=C/C=C/C=C/C=C/[C@H](O[C@@H]2O[C@H](C)[C@@H](O)[C@H](N)[C@@H]2O)C[C@@H]2O[C@](O)(C[C@@H](O)C[C@@H](O)[C@H](O)CC[C@@H](O)C[C@@H](O)CC(=O)O[C@H]1C)C[C@H](O)[C@H]2C(=O)O` [AMPHOTERICIN B]: the pIC50 in the data set with Trypanosoma cruzi [1] was 5.73.
Molecule `O=C(N[C@H]1C(O)O[C@H](CO)[C@H](O)[C@@H]1O)c1ccccc1` (stereo partly specified) yielded an inhibition at 20 µM against Hexokinase-4 of 37.8%. Besides, in the data set on Trypanosoma cruzi [1], the negative logarithm of the IC50 (pIC50) was 4.26. The same molecule showed an inhibition with Saccharomyces cerevisiae of 0%. This molecule had a pKi in [2] of less than 3.30.
In turn, `O=C(N[C@H]1C(O)O[C@H](CO)[C@@H](O)[C@@H]1O)c1cc2ccccc2o1` (stereo partly specified) had an inhibition at 20 µM against Hexokinase-4 of 25.2%. Further, the pIC50 with Trypanosoma cruzi [1] is 4.56. Besides, in the data set with Saccharomyces cerevisiae, the inhibition came to 0%. Besides, the Michaelis-Menten constant (Km) in the data set on Trypanosoma cruzi [4] came to 890 µM. Also, the negative-log Ki (pKi) in [2] and in [6] was 3.97 throughout. The maximal velocity (Vmax) in the data set with Trypanosoma cruzi [5] was 8.1 10^-5M/min.
On to `O=C(N[C@@H]1C(O)O[C@H](CO)[C@@H](O)[C@@H]1O)c1cccc(Br)c1` (stereo partly specified), for which the inhibition at 20 µM at Hexokinase-4 stood at 27%. For the same molecule, the pIC50 in the data set on Trypanosoma cruzi [1] is 4.42. Moreover, in the data set on Saccharomyces cerevisiae, the inhibition is 0%. In data set [2], this molecule showed a pKi of 3.49.
Take `O=C(N[C@H]1C(O)O[C@H](CO)[C@@H](O)[C@@H]1O)OCc1ccccc1` (stereo partly specified): on Hexokinase-4, the inhibition at 20 µM came out at 2%. For the same molecule, the pKi in data set [7] is 6.15. The inhibition with Saccharomyces cerevisiae was 0%. The pIC50 in the data set on Trypanosoma cruzi [3] was 4.31.
The matching figures for `O=C(N[C@H]1C(O)O[C@H](CO)[C@@H](O)[C@@H]1O)c1ccccc1` (stereo partly specified): 39.2%, 4.49, 0.5% and 4.79.
Regarding `O=C(N[C@H]1C(O)O[C@H](CO)[C@@H](O)[C@@H]1O)c1cccc(Br)c1` (stereo partly specified), at Hexokinase-4, the inhibition at 20 µM is 31.2%. For the same molecule, the pIC50 in the data set on Trypanosoma cruzi [1] was 4.18. This molecule displayed an inhibition with Saccharomyces cerevisiae of 0%. This molecule had a pKi in data set [2] of 4.74.
